Measurements reported in BindingDB's records for doi:10.1007/s00213-009-1521-8 (Case Western Reserve University, 2009).

Assays:
Histamine H4 receptor = Histamine H4 receptor (Homo sapiens, UniProt Q9H3N8)
[1] = molecular target: Beta-2 adrenergic receptor (Homo sapiens, UniProt P07550)
[2] = molecular target: 5-hydroxytryptamine receptor 1D (Homo sapiens, UniProt P28221)
[3] = molecular target: Beta-3 adrenergic receptor (Homo sapiens, UniProt P13945)
[4] = molecular target: Alpha-1B adrenergic receptor (Homo sapiens, UniProt P35368)
[5] = molecular target: Prostaglandin E2 receptor EP3 subtype (Homo sapiens, UniProt P43115)
[6] = molecular target: 5-hydroxytryptamine receptor 1E (Homo sapiens, UniProt P28566)
[7] = molecular target: Muscarinic acetylcholine receptor M1 (Homo sapiens, UniProt P11229)
Muscarinic acetylcholine receptor M1, sequence (P11229 whole entry): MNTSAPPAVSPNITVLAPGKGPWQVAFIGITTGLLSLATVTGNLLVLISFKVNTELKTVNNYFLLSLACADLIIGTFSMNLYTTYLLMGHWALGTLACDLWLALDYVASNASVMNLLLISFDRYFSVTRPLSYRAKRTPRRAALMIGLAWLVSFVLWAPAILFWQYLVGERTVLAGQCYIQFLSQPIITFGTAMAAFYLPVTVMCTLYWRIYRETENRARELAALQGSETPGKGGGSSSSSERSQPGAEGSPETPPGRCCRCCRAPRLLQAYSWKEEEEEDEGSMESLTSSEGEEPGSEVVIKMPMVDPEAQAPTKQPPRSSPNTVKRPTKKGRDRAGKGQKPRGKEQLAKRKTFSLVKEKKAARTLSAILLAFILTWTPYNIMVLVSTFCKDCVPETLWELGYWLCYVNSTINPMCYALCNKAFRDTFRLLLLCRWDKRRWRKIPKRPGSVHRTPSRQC

[8] = molecular target: Muscarinic acetylcholine receptor M4 (Homo sapiens, UniProt P08173)
Muscarinic acetylcholine receptor M4, sequence (P08173 whole entry): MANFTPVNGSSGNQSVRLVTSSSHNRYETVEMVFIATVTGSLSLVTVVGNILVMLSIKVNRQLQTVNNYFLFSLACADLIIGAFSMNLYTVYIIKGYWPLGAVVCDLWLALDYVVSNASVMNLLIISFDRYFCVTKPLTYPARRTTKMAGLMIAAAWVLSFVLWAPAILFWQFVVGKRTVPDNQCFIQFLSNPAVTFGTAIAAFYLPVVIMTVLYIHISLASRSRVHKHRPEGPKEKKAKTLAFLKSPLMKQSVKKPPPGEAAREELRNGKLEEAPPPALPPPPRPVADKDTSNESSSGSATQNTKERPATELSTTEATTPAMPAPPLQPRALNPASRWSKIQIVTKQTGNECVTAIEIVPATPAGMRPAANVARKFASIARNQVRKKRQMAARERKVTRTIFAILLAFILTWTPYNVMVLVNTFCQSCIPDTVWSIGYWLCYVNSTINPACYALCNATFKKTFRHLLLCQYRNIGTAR

[9] = molecular target: Sodium-dependent noradrenaline transporter (Homo sapiens, UniProt P23975)
[10] = molecular target: Alpha-1D adrenergic receptor (Homo sapiens, UniProt P25100)
[11] = molecular target: Beta-1 adrenergic receptor (Homo sapiens, UniProt P08588)
[12] = molecular target: Delta-type opioid receptor (Homo sapiens, UniProt P41143)
[13] = molecular target: 5-hydroxytryptamine receptor 5A (Homo sapiens, UniProt P47898)
[14] = molecular target: Muscarinic acetylcholine receptor M5 (Homo sapiens, UniProt P08912)
Muscarinic acetylcholine receptor M5, sequence (P08912 whole entry): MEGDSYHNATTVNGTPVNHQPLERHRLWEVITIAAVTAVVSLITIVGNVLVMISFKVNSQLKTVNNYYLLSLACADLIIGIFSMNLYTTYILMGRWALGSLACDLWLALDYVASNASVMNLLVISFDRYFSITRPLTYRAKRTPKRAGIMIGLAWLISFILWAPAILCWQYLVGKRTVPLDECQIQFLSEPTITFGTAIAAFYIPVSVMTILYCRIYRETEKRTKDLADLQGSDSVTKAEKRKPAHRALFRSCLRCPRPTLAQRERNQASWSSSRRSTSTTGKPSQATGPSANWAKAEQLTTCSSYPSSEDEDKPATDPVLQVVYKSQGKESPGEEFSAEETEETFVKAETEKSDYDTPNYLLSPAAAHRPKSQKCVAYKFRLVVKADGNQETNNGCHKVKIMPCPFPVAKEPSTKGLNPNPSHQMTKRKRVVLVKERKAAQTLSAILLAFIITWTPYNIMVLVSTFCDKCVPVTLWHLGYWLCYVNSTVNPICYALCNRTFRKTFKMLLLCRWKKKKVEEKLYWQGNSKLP

[15] = molecular target: 5-hydroxytryptamine receptor 1B (Homo sapiens, UniProt P28222)
[16] = molecular target: 5-hydroxytryptamine receptor 1A (Homo sapiens, UniProt P08908)
[17] = molecular target: Muscarinic acetylcholine receptor M2 (Homo sapiens, UniProt P08172)
Muscarinic acetylcholine receptor M2, sequence (P08172 whole entry): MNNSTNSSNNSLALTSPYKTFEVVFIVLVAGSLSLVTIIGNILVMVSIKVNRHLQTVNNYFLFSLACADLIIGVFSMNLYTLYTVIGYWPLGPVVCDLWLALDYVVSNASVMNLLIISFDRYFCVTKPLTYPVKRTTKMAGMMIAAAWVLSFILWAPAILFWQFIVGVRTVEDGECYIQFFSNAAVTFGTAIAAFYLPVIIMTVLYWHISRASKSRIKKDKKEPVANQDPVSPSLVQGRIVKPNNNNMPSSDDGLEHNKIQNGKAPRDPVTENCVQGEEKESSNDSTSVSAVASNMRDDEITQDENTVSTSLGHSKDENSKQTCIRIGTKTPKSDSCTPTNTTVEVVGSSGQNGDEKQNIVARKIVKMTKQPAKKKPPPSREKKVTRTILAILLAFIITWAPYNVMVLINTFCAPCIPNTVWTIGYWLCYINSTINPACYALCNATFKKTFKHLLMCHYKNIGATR

Mu-type opioid receptor = Mu-type opioid receptor (Homo sapiens, UniProt P35372)
[18] = molecular target: Alpha-2A adrenergic receptor (Homo sapiens, UniProt P08913)
Histamine H2 receptor = Histamine H2 receptor (Homo sapiens, UniProt P25021)
D(1A) dopamine receptor = D(1A) dopamine receptor (Homo sapiens, UniProt P21728)
D(4) dopamine receptor = D(4) dopamine receptor (Homo sapiens, UniProt P21917)
[19] = molecular target: Kappa-type opioid receptor (Homo sapiens, UniProt P41145)
Kappa-type opioid receptor, sequence (P41145 whole entry): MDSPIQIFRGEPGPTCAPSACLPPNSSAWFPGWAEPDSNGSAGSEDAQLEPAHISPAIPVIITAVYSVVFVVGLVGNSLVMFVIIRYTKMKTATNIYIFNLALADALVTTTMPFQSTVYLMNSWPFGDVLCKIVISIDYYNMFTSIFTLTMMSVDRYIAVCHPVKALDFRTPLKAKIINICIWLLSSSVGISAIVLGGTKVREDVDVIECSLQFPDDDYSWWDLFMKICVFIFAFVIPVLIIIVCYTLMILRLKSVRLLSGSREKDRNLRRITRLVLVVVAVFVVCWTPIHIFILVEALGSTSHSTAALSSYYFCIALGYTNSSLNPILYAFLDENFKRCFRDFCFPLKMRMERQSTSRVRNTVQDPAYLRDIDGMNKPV

[20] = molecular target: 5-hydroxytryptamine receptor 2C (Homo sapiens, UniProt P28335)
5-hydroxytryptamine receptor 2C, sequence (P28335 whole entry): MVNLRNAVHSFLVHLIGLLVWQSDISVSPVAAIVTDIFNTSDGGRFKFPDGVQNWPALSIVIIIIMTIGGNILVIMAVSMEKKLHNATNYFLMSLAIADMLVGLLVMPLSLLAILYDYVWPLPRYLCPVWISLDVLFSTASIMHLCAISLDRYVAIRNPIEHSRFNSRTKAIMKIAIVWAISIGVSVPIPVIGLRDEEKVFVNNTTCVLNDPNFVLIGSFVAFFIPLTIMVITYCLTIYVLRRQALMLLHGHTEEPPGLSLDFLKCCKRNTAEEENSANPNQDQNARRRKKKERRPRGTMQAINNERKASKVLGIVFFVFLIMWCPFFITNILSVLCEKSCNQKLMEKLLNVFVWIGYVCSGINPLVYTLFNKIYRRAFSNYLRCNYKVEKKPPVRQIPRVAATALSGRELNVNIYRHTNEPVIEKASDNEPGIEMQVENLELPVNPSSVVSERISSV

D(1B) dopamine receptor = D(1B) dopamine receptor (Homo sapiens, UniProt P21918)
[21] = molecular target: Muscarinic acetylcholine receptor M3 (Homo sapiens, UniProt P20309)
Muscarinic acetylcholine receptor M3, sequence (P20309 whole entry): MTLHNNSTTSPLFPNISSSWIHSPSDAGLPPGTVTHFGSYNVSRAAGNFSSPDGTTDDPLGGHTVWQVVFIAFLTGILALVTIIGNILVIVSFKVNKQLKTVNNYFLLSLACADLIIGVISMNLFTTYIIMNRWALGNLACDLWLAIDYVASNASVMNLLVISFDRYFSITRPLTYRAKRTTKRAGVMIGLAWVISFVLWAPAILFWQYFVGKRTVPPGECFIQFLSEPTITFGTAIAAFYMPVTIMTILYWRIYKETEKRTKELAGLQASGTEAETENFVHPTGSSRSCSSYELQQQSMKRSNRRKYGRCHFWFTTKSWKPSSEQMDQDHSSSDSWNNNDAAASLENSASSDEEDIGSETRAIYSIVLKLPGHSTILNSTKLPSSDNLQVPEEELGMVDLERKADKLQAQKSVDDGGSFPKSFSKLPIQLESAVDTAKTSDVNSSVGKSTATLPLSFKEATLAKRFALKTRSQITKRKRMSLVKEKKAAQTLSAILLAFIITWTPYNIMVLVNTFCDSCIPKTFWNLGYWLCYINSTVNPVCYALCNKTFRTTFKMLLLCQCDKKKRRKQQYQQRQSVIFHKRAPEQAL

[22] = molecular target: Sigma non-opioid intracellular receptor 1 (Rattus norvegicus, UniProt Q9R0C9)
Sigma non-opioid intracellular receptor 1, sequence (Q9R0C9 whole entry): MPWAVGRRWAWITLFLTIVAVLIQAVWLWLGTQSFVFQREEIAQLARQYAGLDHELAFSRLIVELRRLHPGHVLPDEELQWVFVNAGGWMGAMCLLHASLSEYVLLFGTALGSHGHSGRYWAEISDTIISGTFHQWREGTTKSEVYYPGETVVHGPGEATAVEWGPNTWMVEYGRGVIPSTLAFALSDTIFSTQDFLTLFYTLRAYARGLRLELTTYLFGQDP

[23] = molecular target: Prostaglandin E2 receptor EP4 subtype (Homo sapiens, UniProt P35408)
Prostaglandin E2 receptor EP4 subtype, sequence (P35408 whole entry): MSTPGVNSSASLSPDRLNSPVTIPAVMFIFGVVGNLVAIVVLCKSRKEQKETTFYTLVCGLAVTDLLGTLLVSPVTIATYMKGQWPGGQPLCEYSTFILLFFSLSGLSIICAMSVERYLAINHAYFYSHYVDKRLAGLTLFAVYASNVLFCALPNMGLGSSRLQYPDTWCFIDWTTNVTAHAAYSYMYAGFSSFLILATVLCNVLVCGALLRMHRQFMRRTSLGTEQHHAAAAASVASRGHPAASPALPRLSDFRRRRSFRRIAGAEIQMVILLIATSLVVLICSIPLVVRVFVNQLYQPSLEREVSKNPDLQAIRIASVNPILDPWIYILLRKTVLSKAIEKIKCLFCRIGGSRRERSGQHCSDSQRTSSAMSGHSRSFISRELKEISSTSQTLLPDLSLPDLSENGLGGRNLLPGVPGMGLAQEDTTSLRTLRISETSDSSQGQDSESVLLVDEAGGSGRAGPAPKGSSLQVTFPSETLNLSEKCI

Histamine H1 receptor = Histamine H1 receptor (Homo sapiens, UniProt P35367)
[24] = molecular target: Alpha-2C adrenergic receptor (Homo sapiens, UniProt P18825)
[25] = molecular target: Alpha-1A adrenergic receptor (Homo sapiens, UniProt P35348)
[26] = molecular target: 5-hydroxytryptamine receptor 3A (Homo sapiens, UniProt P46098)
5-hydroxytryptamine receptor 3A, sequence (P46098 whole entry): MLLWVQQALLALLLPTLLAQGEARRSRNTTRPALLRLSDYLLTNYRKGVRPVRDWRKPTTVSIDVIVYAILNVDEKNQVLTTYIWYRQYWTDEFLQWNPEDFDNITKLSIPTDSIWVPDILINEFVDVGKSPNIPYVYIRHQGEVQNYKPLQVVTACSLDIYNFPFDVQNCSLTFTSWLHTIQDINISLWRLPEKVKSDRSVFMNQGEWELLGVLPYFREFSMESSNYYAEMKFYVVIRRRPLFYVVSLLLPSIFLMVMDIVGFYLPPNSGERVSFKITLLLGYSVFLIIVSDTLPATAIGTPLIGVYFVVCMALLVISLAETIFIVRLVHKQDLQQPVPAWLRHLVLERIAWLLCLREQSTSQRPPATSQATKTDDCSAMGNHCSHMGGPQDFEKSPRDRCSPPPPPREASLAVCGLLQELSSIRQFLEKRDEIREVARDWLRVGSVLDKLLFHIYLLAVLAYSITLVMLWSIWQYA

[27] = molecular target: 5-hydroxytryptamine receptor 6 (Homo sapiens, UniProt P50406)
[28] = molecular target: Gamma-aminobutyric acid receptor subunit alpha-1 (Rattus norvegicus, UniProt P62813)

Measured: Ki

Beta-2 adrenergic receptor, sequence (P07550 whole entry): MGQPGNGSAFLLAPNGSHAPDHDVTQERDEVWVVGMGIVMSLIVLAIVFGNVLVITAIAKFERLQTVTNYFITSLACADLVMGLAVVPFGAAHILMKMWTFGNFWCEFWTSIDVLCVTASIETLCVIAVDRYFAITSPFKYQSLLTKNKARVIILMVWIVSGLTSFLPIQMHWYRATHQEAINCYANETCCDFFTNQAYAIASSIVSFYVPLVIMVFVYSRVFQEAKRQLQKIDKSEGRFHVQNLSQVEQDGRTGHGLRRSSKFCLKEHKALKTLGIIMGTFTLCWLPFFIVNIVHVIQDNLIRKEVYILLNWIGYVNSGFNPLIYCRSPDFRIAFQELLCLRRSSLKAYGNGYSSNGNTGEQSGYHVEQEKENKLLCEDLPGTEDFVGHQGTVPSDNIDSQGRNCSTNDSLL

CCN1CCCC1CNC(=O)c1cc(S(=O)(=O)CC)c(N)cc1OC (stereo not given) [NSC_2159]
1.74 µM: [15]
1.54 µM: [24]
4.15 µM: [27]
2.37 µM: D(4) dopamine receptor
1.11 µM: [18]
1.34 µM: [2]
> 10 µM: all other assays above
